Laboratory results as given in ChEMBL document CHEMBL1201862, “PubChem BioAssay data set” (2004).
Each block holds one compound with its values, some of them ahead of it. The source made the active and inactive calls.

Key:
Estrogen receptor beta = Estrogen receptor beta (Homo sapiens, UniProt Q92731);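 also: recombinant ER-beta bound to coactivator SRC1 peptide in presence of estradiol agonist; inhibitors block coactivator peptide binding and lower the FRET signal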
[1] = Luminescence-based cell-based high throughput dose response assay to identify activators of the DAF-12 from the parasite S. stercoralis (ssDAF-12).; type: functional
[2] = target: T1, Oxysterols receptor LXR-beta (Homo sapiens, UniProt P55055); experiment: LXR agonists, Gal4 luciferase reporter, dose response, counter-screen for ssDAF-12 agonist project, cell-based, luminescence, HEK293, S. stercoralis campaign (AID 720737); type: functional; settings: read-out: IC50 (the source's name)
T1 sequence (P55055 whole entry): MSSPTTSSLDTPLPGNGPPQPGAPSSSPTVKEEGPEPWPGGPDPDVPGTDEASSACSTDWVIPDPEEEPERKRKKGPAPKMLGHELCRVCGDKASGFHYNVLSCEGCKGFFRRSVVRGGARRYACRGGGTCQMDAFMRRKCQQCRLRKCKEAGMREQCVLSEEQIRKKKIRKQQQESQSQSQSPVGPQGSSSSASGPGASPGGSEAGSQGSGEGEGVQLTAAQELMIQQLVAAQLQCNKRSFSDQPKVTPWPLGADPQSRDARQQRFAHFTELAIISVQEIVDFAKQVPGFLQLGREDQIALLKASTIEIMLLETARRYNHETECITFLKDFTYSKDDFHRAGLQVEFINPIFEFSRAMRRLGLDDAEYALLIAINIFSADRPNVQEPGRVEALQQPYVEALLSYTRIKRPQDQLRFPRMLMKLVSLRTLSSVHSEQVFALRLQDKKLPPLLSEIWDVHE

[3] = inhibitors of intracellular T. cruzi replication, confirmation, NIH3T3 host cells, beta-gal luminescence (AID 2044); type: functional, cell-based;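 also: intracellular parasites grown in NIH/3T3 mouse fibroblasts as host cells; luminescent beta-galactosidase reporter signal from transgenic T. cruzi replicating inside host cells; inhibitors lower the luminescence signal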
[4] = cytotoxicity toward NIH3T3 fibroblasts, dose response, counter-screen, cell-based, ATP luminescence, mouse fibroblasts (AID 2010); type: functional;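 also: cells exposed to compound for about 90 hours before reading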
[5] = target: FAD-linked sulfhydryl oxidase ALR (Homo sapiens, UniProt P55789); experiment: inhibitors of human ALR sulfhydryl oxidase, dose response, biochemical, H2O2 detection, luminescence, cherry-pick (AID 493248)
[6] = target: T2, DNA repair protein RAD52 homolog (Homo sapiens, UniProt P43351); type: functional, biochemical
T2 sequence (P43351 whole entry): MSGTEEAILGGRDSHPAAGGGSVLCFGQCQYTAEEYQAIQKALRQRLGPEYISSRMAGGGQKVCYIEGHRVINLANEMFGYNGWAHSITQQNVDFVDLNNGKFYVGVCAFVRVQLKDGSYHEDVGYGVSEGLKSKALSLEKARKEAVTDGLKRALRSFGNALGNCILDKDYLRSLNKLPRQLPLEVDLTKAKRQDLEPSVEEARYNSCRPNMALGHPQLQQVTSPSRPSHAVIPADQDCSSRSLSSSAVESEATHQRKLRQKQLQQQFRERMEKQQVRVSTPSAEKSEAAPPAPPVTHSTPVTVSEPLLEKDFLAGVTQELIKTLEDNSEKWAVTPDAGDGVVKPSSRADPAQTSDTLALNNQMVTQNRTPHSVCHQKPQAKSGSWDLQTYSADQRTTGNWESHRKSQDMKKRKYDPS

[7] = THP-1 cell cytotoxicity, dose response, cytotoxicity control for Vif-APOBEC3G degradation inhibitor project, THP-1 cells (AID 1117359); type: functional; settings: Human immunodeficiency virus 1, THP-1
[8] = target: T3, Glutathione-S-transferase (Schistosoma japonicum, UniProt Q26513); experiment: biotin-GST/anti-GST TR-FRET signal inhibitors, dose response, artefact control for Vif-APOBEC3G degradation inhibitor project, biochemical (AID 1117362); type: functional
T3 sequence (Q26513 whole entry): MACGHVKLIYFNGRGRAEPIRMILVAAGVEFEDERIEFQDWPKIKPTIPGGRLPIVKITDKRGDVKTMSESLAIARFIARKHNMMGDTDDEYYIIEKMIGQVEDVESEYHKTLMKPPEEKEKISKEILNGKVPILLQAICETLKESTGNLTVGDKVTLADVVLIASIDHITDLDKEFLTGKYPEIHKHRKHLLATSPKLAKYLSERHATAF

Caspase-6 = target: T4, Caspase-6 (Homo sapiens, UniProt P55212); experiment: human caspase-6 inhibitors, dose response, biochemical, VEID-R110 fluorescence, cherry-pick (AID 720632)
T4 sequence (P55212 whole entry): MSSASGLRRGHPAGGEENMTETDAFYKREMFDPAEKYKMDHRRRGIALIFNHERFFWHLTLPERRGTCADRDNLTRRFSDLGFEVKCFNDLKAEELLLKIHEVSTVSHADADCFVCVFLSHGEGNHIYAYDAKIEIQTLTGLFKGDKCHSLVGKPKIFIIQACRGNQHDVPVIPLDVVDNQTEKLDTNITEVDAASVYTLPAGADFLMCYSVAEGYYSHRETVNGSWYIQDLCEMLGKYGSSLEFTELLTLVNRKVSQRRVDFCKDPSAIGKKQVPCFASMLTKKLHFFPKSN

[9] = target: T5, Histone-lysine N-methyltransferase NSD2 (Homo sapiens, UniProt O96028); type: biochemical
T5 sequence (O96028 whole entry): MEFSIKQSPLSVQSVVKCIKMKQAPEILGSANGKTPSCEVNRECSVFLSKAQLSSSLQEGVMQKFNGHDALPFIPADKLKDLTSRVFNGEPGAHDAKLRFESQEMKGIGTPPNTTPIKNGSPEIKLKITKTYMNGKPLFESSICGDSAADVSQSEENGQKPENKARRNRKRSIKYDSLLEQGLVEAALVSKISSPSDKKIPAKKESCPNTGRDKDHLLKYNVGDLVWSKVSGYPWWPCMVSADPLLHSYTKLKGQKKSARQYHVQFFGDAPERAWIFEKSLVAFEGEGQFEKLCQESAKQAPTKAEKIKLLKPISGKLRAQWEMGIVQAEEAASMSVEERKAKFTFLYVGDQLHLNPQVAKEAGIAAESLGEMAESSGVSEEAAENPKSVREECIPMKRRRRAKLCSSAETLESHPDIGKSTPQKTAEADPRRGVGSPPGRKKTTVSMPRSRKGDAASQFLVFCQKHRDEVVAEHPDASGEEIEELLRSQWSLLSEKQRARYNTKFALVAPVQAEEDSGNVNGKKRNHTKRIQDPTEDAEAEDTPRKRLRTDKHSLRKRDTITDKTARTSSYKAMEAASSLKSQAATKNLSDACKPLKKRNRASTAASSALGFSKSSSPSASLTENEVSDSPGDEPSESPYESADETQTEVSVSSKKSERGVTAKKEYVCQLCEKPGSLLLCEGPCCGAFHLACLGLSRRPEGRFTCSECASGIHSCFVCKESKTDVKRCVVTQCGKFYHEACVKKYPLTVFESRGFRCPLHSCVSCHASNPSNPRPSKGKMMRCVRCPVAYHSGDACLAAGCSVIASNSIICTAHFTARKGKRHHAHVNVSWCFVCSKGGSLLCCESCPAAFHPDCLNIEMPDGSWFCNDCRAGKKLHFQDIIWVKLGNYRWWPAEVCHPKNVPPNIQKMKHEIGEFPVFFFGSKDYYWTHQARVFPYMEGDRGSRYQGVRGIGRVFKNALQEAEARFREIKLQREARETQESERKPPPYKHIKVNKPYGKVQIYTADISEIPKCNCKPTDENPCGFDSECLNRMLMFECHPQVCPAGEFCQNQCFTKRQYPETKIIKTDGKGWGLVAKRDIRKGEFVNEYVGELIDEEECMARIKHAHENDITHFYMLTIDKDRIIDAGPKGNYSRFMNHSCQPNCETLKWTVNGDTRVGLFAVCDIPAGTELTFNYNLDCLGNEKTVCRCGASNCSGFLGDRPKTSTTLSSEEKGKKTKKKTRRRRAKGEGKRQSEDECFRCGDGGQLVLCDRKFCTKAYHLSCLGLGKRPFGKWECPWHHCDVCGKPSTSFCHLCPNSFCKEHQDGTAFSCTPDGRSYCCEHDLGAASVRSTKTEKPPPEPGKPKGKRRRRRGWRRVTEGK

Sequence of FAD-linked sulfhydryl oxidase ALR (P55789 whole entry): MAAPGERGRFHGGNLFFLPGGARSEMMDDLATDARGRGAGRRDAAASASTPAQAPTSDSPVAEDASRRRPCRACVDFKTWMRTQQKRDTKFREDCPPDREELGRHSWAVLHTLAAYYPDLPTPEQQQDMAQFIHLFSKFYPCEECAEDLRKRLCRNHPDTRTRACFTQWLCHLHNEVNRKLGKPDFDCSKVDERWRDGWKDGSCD
Sequence of Estrogen receptor beta (Q92731 whole entry): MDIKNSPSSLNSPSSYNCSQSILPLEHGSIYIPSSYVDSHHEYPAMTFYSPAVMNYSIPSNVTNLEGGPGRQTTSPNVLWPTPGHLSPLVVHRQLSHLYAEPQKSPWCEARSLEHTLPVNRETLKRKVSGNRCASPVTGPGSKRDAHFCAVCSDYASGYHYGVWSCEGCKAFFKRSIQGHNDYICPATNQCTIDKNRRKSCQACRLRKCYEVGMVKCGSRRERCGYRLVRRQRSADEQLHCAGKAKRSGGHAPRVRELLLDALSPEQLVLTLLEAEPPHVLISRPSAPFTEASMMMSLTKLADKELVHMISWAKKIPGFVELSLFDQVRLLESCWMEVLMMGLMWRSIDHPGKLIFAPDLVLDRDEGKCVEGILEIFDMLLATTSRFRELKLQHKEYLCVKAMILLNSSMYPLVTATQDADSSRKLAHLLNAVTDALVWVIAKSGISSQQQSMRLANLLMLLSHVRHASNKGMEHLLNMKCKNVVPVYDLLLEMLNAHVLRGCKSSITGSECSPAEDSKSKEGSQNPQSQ

IC50 (Estrogen receptor beta): > 50 µM (not active)
Compound: CCSc1nnc(Cc2cc(=O)[nH]c(=O)[nH]2)n1-c1cc(C)ccc1C

Compound: C=CCn1c(COc2ccc(OC)cc2)nnc1SCn1nnc2ccccc2c1=O
IC50 [1]: > 67.6 µM (inactive)
EC50 [2]: > 67.6 µM (inactive)

Compound: CC1(C)CC(Nc2ccc(Nc3ccccc3)cc2)CC(C)(C)N1
EC50 [3]: 4.14 µM (active)
EC50 [4]: > 60 µM (not active)
AC50 [5]: 0.27 µM (active)
AC50 [6]: 13.9 µM (active)
CC50 [7]: > 40 µM (active)
IC50 [8]: 64.5 µM (active)

AC50 (Caspase-6): 19.2 µM (active)
AC50 [9]: > 20 µM (inactive)
Compound: Cc1cc(/C=C\c2nc(O)c([N+](=O)[O-])c(O)n2)c(C)n1-c1ccccc1
